Test results from patent publication US20110165094A1, “USE OF VITAMIN E OR DERIVATIVES THEREOF FOR THE CONTROL OF ARTHROPODS” (BIO.LO.GA S.R.L., priority 2008, published 2011).

Tested on: Pediculus capitis
Assay: Test 3: comparison of Example 1 formulation with 100% cyclomethicone spray, head louse mortality
Format: in vivo
Conditions: after 24 hours
Method: A comparison test was also carried out between the formulation of Example 1, a compressed air spray similar to that described in Example 1, but containing 100% of cyclomethicone and a control composed of water.
Head lice were obtained from volunteer children using the same procedures outlined above for test 1.
The lice were distributed in groups of twenty onto squares of open mesh nylon gauze as a support substrate. Each group was placed on 90 millimetre plastic Petri dish.
Each square (4 cm^2) of gauze with the lice attached was then massaged with approx. 5 ml of the formulation to be tested. This was done on the dry gauze so that the formulations could be used neat. The formulations were then left exposed to the air for the specified exposure time.
After the lice had been exposed to the formulation to be tested for a given exposure time, water was added to the gauze, together with approx. 1 ml of shampoo and the gauze was massaged once more to produce a satisfactory foam. The gauze was then rinsed three times with 250 ml of warm tap water (34° C.) poured over and through the gauze squares. The gauze was then blotted dry with medical wipe tissue and incubated under normal maintenance conditions in clean plastic Petri dishes of appropriate dimensions until the results were recorded. […]

## CC(=O)Oc1c(C)c(C)c2c(c1C)CCC(C)(CCC[C@H](C)CCC[C@H](C)CCCC(C)C)O2 (stereo partly drawn) [vitamin E acetate, d,l-alpha-Tocopherol acetate]
  effect on the lice (inferred from Example 1 vs 100% cyclomethicone spray): significant effect
